Test system: PHD3 and VEGF
Assay: qPCR of PHD3 and VEGF in primary culture of epNSCs
Format: cell-based, rat
Details: 500 nM, hypoxia (1% O2), 6 to 24 hours
Text: Adult Wistar rats of between 2 to 3 months of age were used (the animals were handled following the mode of action which complies with section 2.1 (acceptable methods of euthanasia) of the document prepared for the DGXI of the European Commission regarding the protection of animals used for experimentation and other scientific purposes (No. L358, ISSN 0378-6978) and after the approval of the protocols by the Committee for Animal Care and Wellbeing of the Centro de Investigación Principe Felipe, Valencia, SPAIN). Once the animals were sacrificed, the dorsal part of the spinal cord was dissected and the tissue was maintained, at 4°C, in washing medium (DPBS-glucose) for its processing. To reduce the percentage of connective tissue cells the meninges as well as the most superficial blood vessels were removed. […]
Total RNA was isolated using the commercial kit RNAeasy (Qiagen) and following the manufacturer's instructions. […] The quantitative polymerase chain reaction (qPCR) was carried out using Taqman probes and primers designed by Applied Biosystem for rVEGF (Ref Rn00582935_m1), rPHD3 (Ref Rn00571341_m1) and rGAPDH (Ref Rn01775763_g1). […] The expression levels of VEGF and PHD3 were expressed as the increase of Ct with respect to the expression levels of GAPDH (constitutive expression gene): Ct (ΔCt)=Ct (VEGF or PHD3)-Ct (GAPDH). […]

SMILES: Cc1ccc(C(=O)COC(=O)c2cccc(NC(=O)c3ccc([N+](=O)[O-])cc3[N+](=O)[O-])c2)cc1 [FM19G11, 2-oxo-2-(p-tolyl)ethyl 3-((2,4-dinitro)benzamido)benzoate]
- increase of both PHD3 and VEGF (mRNA): significantly inhibited
